Results on 9 compounds are retold here after patent US20120172384A1, “HETEROCYCLYLAMINOPYRIMIDINES AS KINASE INHIBITORS” (priority 2009, published 2012).

The subject of experiment [1] is rheumatoid arthritis. As to conditions: animal model of rheumatoid arthritis (Pine et al., 2007); cited from earlier work.
Experiment [2] has as its system rheumatoid arthritis. As to conditions: rheumatoid arthritis (Weinblatt et al., 2008); cited from earlier work.
For the next experiment, the system named is organ transplantation. Particulars: Changelian et al., 2003; cited from earlier work.
Another experiment deals with T1, JAK3 (Homo sapiens, UniProt P52333).
T1 construct: endogenous in cells
T1 sequence (P52333 1-1124): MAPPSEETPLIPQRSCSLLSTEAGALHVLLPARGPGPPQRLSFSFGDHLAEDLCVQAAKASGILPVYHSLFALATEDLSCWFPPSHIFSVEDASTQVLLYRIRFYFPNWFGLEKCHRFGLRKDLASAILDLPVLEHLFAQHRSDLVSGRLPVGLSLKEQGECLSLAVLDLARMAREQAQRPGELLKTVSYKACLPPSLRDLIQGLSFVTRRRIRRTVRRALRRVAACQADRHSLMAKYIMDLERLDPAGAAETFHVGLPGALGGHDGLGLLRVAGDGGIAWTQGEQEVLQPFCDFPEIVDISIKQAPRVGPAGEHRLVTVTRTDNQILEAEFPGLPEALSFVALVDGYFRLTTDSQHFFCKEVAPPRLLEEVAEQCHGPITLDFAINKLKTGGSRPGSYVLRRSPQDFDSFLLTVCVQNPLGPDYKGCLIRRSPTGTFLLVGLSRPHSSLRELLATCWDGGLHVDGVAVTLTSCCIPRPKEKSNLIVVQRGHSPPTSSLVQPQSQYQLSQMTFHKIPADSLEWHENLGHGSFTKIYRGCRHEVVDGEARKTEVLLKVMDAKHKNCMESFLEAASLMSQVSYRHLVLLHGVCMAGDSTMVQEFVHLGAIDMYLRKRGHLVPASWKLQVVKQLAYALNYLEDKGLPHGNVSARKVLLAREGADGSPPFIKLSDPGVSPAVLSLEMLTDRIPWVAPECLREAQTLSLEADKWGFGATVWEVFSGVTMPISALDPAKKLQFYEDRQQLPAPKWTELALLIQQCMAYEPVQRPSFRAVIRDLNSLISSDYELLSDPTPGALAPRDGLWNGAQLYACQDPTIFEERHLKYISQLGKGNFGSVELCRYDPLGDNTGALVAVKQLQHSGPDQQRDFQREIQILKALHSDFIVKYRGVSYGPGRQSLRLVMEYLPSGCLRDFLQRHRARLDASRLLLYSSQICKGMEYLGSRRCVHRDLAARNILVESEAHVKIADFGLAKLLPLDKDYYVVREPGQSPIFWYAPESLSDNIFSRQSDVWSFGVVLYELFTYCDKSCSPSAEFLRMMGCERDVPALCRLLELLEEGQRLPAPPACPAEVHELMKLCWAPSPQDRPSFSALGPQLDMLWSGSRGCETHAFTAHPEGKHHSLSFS
The experiment is described as follows: JAK3 kinobeads assay. The class given is binding. Particulars: cell lysate, dot blot with JAK3 specific antibody. The essentials: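 In this competition pulldown, test compounds at various concentrations were incubated in cell lysate together with beads carrying an immobilized aminopyrido-pyrimidine ligand. Bead-bound proteins were eluted, and JAK3 was quantified by dot blot with a JAK3-specific antibody and infrared detection.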

The next experiment has as its target T2, ZAP-70 (Homo sapiens, UniProt P43403).
T2 construct: endogenous in cells
T2 sequence (P43403 1-619): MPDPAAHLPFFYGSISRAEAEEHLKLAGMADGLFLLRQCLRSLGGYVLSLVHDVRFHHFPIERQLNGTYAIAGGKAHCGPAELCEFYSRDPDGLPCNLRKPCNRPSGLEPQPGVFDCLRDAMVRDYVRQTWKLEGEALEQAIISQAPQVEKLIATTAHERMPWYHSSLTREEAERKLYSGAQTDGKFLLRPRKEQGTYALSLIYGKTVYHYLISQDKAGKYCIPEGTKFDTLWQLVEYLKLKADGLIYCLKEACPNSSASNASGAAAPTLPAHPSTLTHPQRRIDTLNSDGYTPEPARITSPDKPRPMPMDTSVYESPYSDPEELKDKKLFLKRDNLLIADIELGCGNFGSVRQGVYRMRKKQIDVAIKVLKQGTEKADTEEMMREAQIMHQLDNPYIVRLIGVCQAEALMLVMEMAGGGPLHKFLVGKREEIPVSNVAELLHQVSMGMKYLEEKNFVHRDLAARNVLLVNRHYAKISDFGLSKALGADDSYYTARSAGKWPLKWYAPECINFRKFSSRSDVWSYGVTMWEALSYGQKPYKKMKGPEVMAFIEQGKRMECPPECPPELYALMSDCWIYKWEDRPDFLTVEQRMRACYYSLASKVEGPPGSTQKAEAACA
Put plainly: ZAP-70 kinobeads assay. The class given is binding. As to conditions: cell lysate, dot blot with ZAP-70 antibody.

Structures are written as SMILES. pIC50: −log10 of the molar value.

In the case of `COc1cc(Nc2ncc(F)c(Nc3ccc4c(n3)NC(=O)C(C)(C)O4)n2)cc(OC)c1OC` [Example R406], the “inflammation and bone erosion” value with rheumatoid arthritis [1] is “suppresses inflammation and bone erosion”. Regarding `COc1cc(Nc2ncc(F)c(Nc3ccc4c(n3)N(COP(=O)(O)O)C(=O)C(C)(C)O4)n2)cc(OC)c1OC` [Example R788], the “efficacy in clinical study” value with rheumatoid arthritis [2] is “demonstrated efficacy”. Turning to `C[C@@H]1CCN(C(=O)CC#N)C[C@@H]1N(C)c1ncnc2[nH]ccc12` [CP-690,550], the “efficacy in animal model of organ transplantation” value with organ transplantation is given as “show efficacy”.

Take `COc1ccc(Nc2nc(Nc3ccon3)ncc2F)c(NS(C)(=O)=O)c1` [Example 36, N-(2-(5-fluoro-2-(isoxazol-3-ylamino)pyrimidin-4-ylamino)-5-methoxyphenyl)methanesulfonamide]: the pIC50 was 6.00 to 7.00 on JAK3 and 5.00 to 6.00 at ZAP-70. In the same order, the values of `COc1ccc(Nc2nc(Nc3cnn(C)c3)ncc2Cl)c(NS(C)(=O)=O)c1` [Example 6, N-(2-(5-chloro-2-(1-methyl-1H-pyrazol-4-ylamino)pyrimidin-4-ylamino)-5-methoxyphenyl)methanesulfonamide] are at least 7.00 and at least 7.00. In the same order, the values of `CCn1cc(Nc2ncc(Cl)c(Nc3ccccc3NS(C)(=O)=O)n2)c(C)n1` [Example 33, N-(2-(5-chloro-2-(1-ethyl-3-methyl-M-pyrazol-4-ylamino)pyrimidin-4-ylamino)phenyl)methanesulfonamide] are at least 7.00 and 6.00 to 7.00. In the same order, the values of `Cn1ccc(Nc2ncc(Br)c(Nc3ccccc3NS(C)(=O)=O)n2)n1` [Example 43, N-(2-((5-bromo-2-((1-methyl-1H-pyrazol-3-yl)amino)pyrimidin-4-yl)amino)phenyl)methanesulfonamide] are at least 7.00 and 6.00 to 7.00. `COc1ccc(Nc2nc(Nc3c(C)nn(C)c3C)ncc2Cl)c(NS(C)(=O)=O)c1` [Example 13, N-(2-(5-chloro-2-(1,3,5-trimethyl-1H-pyrazol-4-ylamino)pyrimidin-4-ylamino)-5-methoxyphenyl)methanesulfonamide]: the pIC50 against JAK3 was 5.00 to 6.00; at ZAP-70, 6.00 to 7.00. On the same counts, the results for `CCn1nccc1Nc1ncc(Cl)c(Nc2ccc(OC)cc2NS(C)(=O)=O)n1` [Example 29, N-(2-(5-chloro-2-(1-ethyl-1H-pyrazol-5-ylamino)pyrimidin-4-ylamino)-5-methoxyphenyl)methanesulfonamide] are 5.00 to 6.00 and 6.00 to 7.00.

The term pIC50 denotes −log10 of the IC50, conventionally taken in molar units. A high value points to a small IC50.
